For five compounds, IC50 results are on record in patent EP2623098B1, “Amide Amino Acid Esters of Nonsteroidal Anti-Inflammatory Drugs (NSAIDs) as Potent Inhibitors of Tumor Cell Growth” (King Saud University, priority 2012, dated 2013).

For the test, the system named is HT-29 human colon adenocarcinoma cells. The test can be described thus: Tumor cell growth inhibition assay (Cell Titer Glo, cell viability), HT-29. It is filed as cell-based. To be noted: HT-29 cells, 72 hours treatment. The method, then:
The human colon adenocarcinoma cell lines were obtained from ATCC and grown under standard cell culture conditions in RPMI 1640 medium containing 5% fetal bovine serum (FBS) at 37°C in a humidified atmosphere with 5% CO2.
Tissue culture treated 96-well microtiter plates were seeded at a density of 5,000 cells/well. For growth inhibition assays, cells were incubated at 37°C for 18-24 hours, treated with the specified compound or vehicle (0.1% DMSO final) control, and incubated at 37°C an additional 72 hours. The effect of treatment on cell viability was determined using the luminescent Cell Titer Glo Assay (Promega).
HT-29 human colon adenocarcinoma cells were treated with compounds of the invention and grown under standard cell culture conditions. […]
(ATP-based viability assays read luminescence as a measure of living cells.)
The term IC50 denotes the point on the concentration scale where inhibition reaches its midpoint. A high value points to weaker potency. For `CCOC(=O)C(NC(=O)C(C)c1ccc2cc(OC)ccc2c1)C(C)C` (centres unmarked) [XI], the midpoint of inhibition, the IC50, lay at 29.4 µM.

For `CCOC(=O)C(CCSC)NC(=O)C(C)c1ccc2cc(OC)ccc2c1` (centres unmarked) [XII], the IC50 was determined as 49.3 µM.

Consider `COC(=O)CC(NC(=O)C(C)c1ccc2cc(OC)ccc2c1)C(=O)OC` (centres unmarked) [IX], for which half-maximal inhibition (IC50) was put at 121 µM.

For `COC(=O)C(CC(C)C)NC(=O)C(C)c1ccc2cc(OC)ccc2c1` (centres unmarked) [VII], inhibition was half-maximal at 34.5 µM (IC50).

Regarding `CCOC(=O)CCNC(=O)C(C)c1ccc2cc(OC)ccc2c1` (centres unmarked) [IV], half-maximal inhibition (IC50) required 123 µM.
